Several values for one entry are separate records, joined by “and”; a condition that tells them apart may be missing. Equal values may be shown once.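 Values below derive from 48-hour exposures of cells grown in 96-well plates, with endpoints linearly interpolated between the two concentrations bracketing the appropriate inhibition level. At the GI50, growth is halved. TGI is the concentration that stops growth completely.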

Some test systems named below: KM12 colon; MDA-MB-231 breast; A549 NSCLC; TK-10 renal; SF-539 CNS; NCI/ADR-RES ovarian; NCI-H522 lung; DU-145 prostate; ACHN renal; SNB-75 CNS.
What all share (assay): growth of human tumour cells (NCI), 48 h

Turning to `O=C(O)C1(C(=O)O)CCC1.[NH2-].[NH2-].[Pt+2]`, the GI50 in the assay with KM12 colon was 218 µM and > 250 µM; in the assay on MDA-MB-231 breast it was 247 µM and > 250 µM; in the assay with A549 NSCLC it was 107 µM and 185 µM; in the assay with TK-10 renal it was 220 µM and 131 µM; in the assay with SF-539 CNS it was 81.2 µM and 96 µM; in the assay with NCI/ADR-RES ovarian it was 171 µM and 168 µM. Moreover, the GI50 is 54.9 µM and 95.7 µM in the assay on NCI-H522 lung; 121 µM and 94.6 µM in the assay on DU-145 prostate; 81.2 µM in the assay on ACHN renal; 108 µM and > 114 µM in the assay with SNB-75 CNS. The TGI in the assay with KM12 colon is over 250 µM; in the assay with MDA-MB-231 breast, over 250 µM; with A549 NSCLC it was 226 µM and > 250 µM; with TK-10 renal it was over 250 µM; in the assay with SF-539 CNS it was 221 µM and > 250 µM; in the assay on NCI/ADR-RES ovarian, 228 µM and > 250 µM. Moreover, the TGI in the assay on NCI-H522 lung was 145 µM and 190 µM; with DU-145 prostate, over 250 µM; in the assay on ACHN renal it was over 239 µM; in the assay on SNB-75 CNS it was 247 µM and > 250 µM.

`O=C(NCCCO)c1cc(Cl)ccc1O`: the GI50 in the assay on KM12 colon is 2.43 µM; in the assay with MDA-MB-231 breast it was 3.64 µM; with A549 NSCLC, 3.24 µM; in the assay with TK-10 renal, 4.26 µM; in the assay on SF-539 CNS it was 4.85 µM; with NCI/ADR-RES ovarian, 9.31 µM. Moreover, the GI50 with NCI-H522 lung was 1.12 µM; in the assay on DU-145 prostate, 4.41 µM; in the assay with ACHN renal, 3.73 µM; with SNB-75 CNS, 2.44 µM. Moreover, the TGI in the assay with KM12 colon amounted to 12.9 µM; with MDA-MB-231 breast, 12.8 µM; in the assay with A549 NSCLC, 14 µM; with TK-10 renal, 15.1 µM; in the assay with SF-539 CNS it was 17.5 µM; in the assay on NCI/ADR-RES ovarian, 27.9 µM. Further, the TGI in the assay with NCI-H522 lung was determined as 4.77 µM; in the assay with DU-145 prostate, 16.1 µM; in the assay on ACHN renal, 13.2 µM; with SNB-75 CNS, 15.1 µM.

As to `Cc1nc2ccccc2c(/C=C/c2ccc(Cl)cc2)c1C(=O)/C=C/c1ccc(C(F)(F)F)cc1`, the GI50 with KM12 colon is 1.28 µM; with MDA-MB-231 breast it was 0.301 µM; in the assay on A549 NSCLC, 1.41 µM; with TK-10 renal it was 1.69 µM; with SF-539 CNS, 0.24 µM; in the assay on NCI/ADR-RES ovarian it was 0.619 µM. Besides, the GI50 was 0.198 µM with NCI-H522 lung, 1.03 µM in the assay on DU-145 prostate, 0.241 µM in the assay with ACHN renal and 1.28 µM with SNB-75 CNS. In addition, the TGI stood at 3.46 µM with KM12 colon; 0.947 µM in the assay with MDA-MB-231 breast; 3.48 µM with A549 NSCLC; 3.09 µM in the assay with TK-10 renal; 0.636 µM in the assay with SF-539 CNS; 3.63 µM with NCI/ADR-RES ovarian. Moreover, the TGI in the assay with NCI-H522 lung came out at 0.838 µM; with DU-145 prostate, 2.53 µM; with ACHN renal, 0.594 µM; with SNB-75 CNS it was 2.57 µM.

In the case of `COc1cc(C(=O)N2CCN(c3ncnc4ccccc34)CC2)c(N)cc1OCc1ccccc1`, the GI50 in the assay on KM12 colon is 14.9 µM; with MDA-MB-231 breast, 13.9 µM; with A549 NSCLC, 16.5 µM; with TK-10 renal, 20 µM; in the assay with SF-539 CNS, 18.6 µM; in the assay on NCI/ADR-RES ovarian, 16.1 µM. In addition, the GI50 in the assay on NCI-H522 lung was 5.71 µM; with DU-145 prostate, 7.21 µM; in the assay on ACHN renal it was 14 µM; with SNB-75 CNS it was 7.63 µM. For the same compound, the TGI stood at 38.4 µM with KM12 colon; 35.3 µM with MDA-MB-231 breast; 50.5 µM with A549 NSCLC; 51.1 µM in the assay with TK-10 renal; 33.2 µM in the assay with SF-539 CNS; 35.1 µM in the assay on NCI/ADR-RES ovarian. Besides, the TGI with NCI-H522 lung came out at 26.8 µM; in the assay on DU-145 prostate, 19.9 µM; in the assay with ACHN renal it was 37.6 µM; in the assay with SNB-75 CNS, 20.8 µM.

As to `CC(=O)OC(C)(C)/C(C)=C/C(=O)O[C@H]1C(=O)O[C@@H]2C[C@H]3[C@H](C)C(=O)C(O[C@@H]4O[C@H](CO)[C@@H](O)[C@H](O)[C@H]4O)=C[C@]3(C)[C@H]3[C@@H](O)[C@H](O)[C@@]4(C(=O)O)OC[C@]32[C@@H]14`, the GI50 in the assay on KM12 colon was over 100 µM; in the assay on MDA-MB-231 breast, over 100 µM; in the assay with A549 NSCLC, over 100 µM; in the assay on TK-10 renal it was over 100 µM; with SF-539 CNS, 55.9 µM; in the assay with NCI/ADR-RES ovarian, over 100 µM. Moreover, the GI50 in the assay on NCI-H522 lung is 18.7 µM; in the assay on DU-145 prostate it was over 100 µM; in the assay on ACHN renal, over 100 µM; in the assay on SNB-75 CNS it was over 100 µM. Further, the TGI with KM12 colon, in the assay on MDA-MB-231 breast, in the assay on A549 NSCLC, in the assay with TK-10 renal, with SF-539 CNS and with NCI/ADR-RES ovarian was over 100 µM throughout. Moreover, the TGI in the assay with NCI-H522 lung is 49.5 µM; in the assay with DU-145 prostate, over 100 µM; with ACHN renal, over 100 µM; in the assay with SNB-75 CNS it was over 100 µM.

Consider `CN(C)CCNC(=O)c1cccc(N(C)C(=O)c2ccccc2)c1[N+](=O)[O-]`, for which the TGI in the assay with KM12 colon, in the assay on MDA-MB-231 breast, in the assay on A549 NSCLC, in the assay on TK-10 renal, in the assay on SF-539 CNS and in the assay with NCI/ADR-RES ovarian was over 100 µM each time. For the same compound, the TGI in the assay with NCI-H522 lung, in the assay on DU-145 prostate, in the assay with ACHN renal and in the assay with SNB-75 CNS was over 100 µM in each case.

With `Cc1nc(-c2cn3c(n2)-c2ccc(-c4cnn(C(C)(C)C(N)=O)c4)cc2OCC3)n(C(C)C)n1`, the GI50 was 3.48 µM and 3 µM with KM12 colon; 6.44 µM and 4.11 µM in the assay on MDA-MB-231 breast; 0.332 µM and 0.392 µM in the assay on A549 NSCLC; 0.0722 µM and 0.0489 µM with TK-10 renal; 0.654 µM and 0.493 µM in the assay on SF-539 CNS; 8.25 µM and > 7.21 µM with NCI/ADR-RES ovarian. In addition, the GI50 was 5.73 µM and 6.01 µM in the assay with NCI-H522 lung; 1.72 µM and 2.15 µM in the assay with DU-145 prostate; 0.647 µM and 1.33 µM in the assay on ACHN renal; 0.0204 µM and 0.0142 µM in the assay on SNB-75 CNS. The TGI with KM12 colon is 17.2 µM and > 10 µM; in the assay on MDA-MB-231 breast, 35.9 µM and > 10 µM; in the assay with A549 NSCLC, 16.8 µM and > 10 µM; in the assay on TK-10 renal it was 32.1 µM and > 10 µM; in the assay on SF-539 CNS, 6.13 µM and 5.83 µM; in the assay on NCI/ADR-RES ovarian it was over 83.1 µM. Further, the TGI in the assay with NCI-H522 lung was 26.7 µM and > 10 µM; with DU-145 prostate it was over 100 µM; with ACHN renal, over 100 µM; in the assay with SNB-75 CNS, 2.63 µM and > 2.63 µM.

Regarding `NCCCCCCCn1c2c(c3ccccc3c1=O)C(=O)c1ccccc1-2`, the GI50 in the assay on KM12 colon is 1.68 µM; with MDA-MB-231 breast, 1.85 µM; in the assay with A549 NSCLC it was 3.27 µM; with TK-10 renal it was 1.67 µM; in the assay with SF-539 CNS, 1.66 µM; in the assay on NCI/ADR-RES ovarian it was 2.56 µM. The GI50 in the assay with NCI-H522 lung was 1.58 µM; in the assay on DU-145 prostate, 0.915 µM; with ACHN renal, 1.6 µM; with SNB-75 CNS it was 2.17 µM. Further, the TGI in the assay on KM12 colon stood at 3.82 µM; in the assay with MDA-MB-231 breast, 3.79 µM; in the assay with A549 NSCLC it was 18.3 µM; in the assay on TK-10 renal it was 3.29 µM; in the assay on SF-539 CNS, 3.09 µM; in the assay with NCI/ADR-RES ovarian it was 7.87 µM. For the same compound, the TGI in the assay with NCI-H522 lung was found to be 3.46 µM; in the assay on DU-145 prostate it was 2.12 µM; with ACHN renal it was 3.47 µM; in the assay on SNB-75 CNS it was 4.55 µM.

For the origin of these results see PubChem BioAssay (NCI).
